Laboratory results from patent publication US20040053355A1, “Modular approach to on-line synthesis, drug discovery and biochemical transformations using immobilized enzyme reactors” (priority 2000, published 2004).

How the values were obtained:
[1] = target: T1, dopamine beta-hydroxylase (DBH), non-immobilized (Bos taurus, UniProt P15101); assay: Non-immobilized DBH activity assay, batch incubation with HPLC-fluorescence analysis; format: biochemical, bovine
T1 construct: purchased
T1 sequence (P15101 1-610): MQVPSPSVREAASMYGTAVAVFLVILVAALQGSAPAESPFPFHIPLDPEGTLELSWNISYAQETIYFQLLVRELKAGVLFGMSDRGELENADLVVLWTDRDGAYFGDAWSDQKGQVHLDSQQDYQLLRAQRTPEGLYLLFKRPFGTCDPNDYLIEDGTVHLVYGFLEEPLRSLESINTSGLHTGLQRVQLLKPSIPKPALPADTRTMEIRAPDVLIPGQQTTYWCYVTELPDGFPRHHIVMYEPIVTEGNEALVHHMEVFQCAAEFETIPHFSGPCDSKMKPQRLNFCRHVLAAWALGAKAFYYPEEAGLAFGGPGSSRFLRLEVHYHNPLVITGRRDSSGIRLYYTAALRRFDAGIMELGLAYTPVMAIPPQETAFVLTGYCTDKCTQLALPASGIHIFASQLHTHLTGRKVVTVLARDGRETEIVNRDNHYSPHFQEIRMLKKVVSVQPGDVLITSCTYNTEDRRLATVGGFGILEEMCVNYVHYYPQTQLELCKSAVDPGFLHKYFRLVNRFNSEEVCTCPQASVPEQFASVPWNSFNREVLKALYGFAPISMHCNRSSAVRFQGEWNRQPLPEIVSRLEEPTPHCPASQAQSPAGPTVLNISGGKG
Method: The solutes were quantitated using fluorescence detection with excitation at λ=265 nm and no cut-off filter for emission. A flow rate of 1 ml/min and ambient temperature were used throughout the study.
Enzymatic conversions utilizing DBH require cupric sulphate, catalase, ascorbic acid and sodium fumarate. An off-line extraction method utilizing solid phase extraction cartridges containing a phenylboronic acid stationary phase was developed. The procedure consisted of the following: 1-ml cartridges were conditioned with 2 ml of methanol followed by 2 ml of sodium phosphate buffer (0.1M, pH 8.4). One ml of reaction mixture was added, the cartridge was then washed with 1 ml sodium phosphate buffer (0.1M, pH 8.4) and the substrate and product were eluted using 1 ml of 0.1N HCl. The eluate was directly injected onto the HPLC system.
(§1) The enzyme was assayed as follows: four different solutions were prepared A, B, C and D (final concentration). (A) 500 μL of enzyme solution (10 μg/ml); B: 275 μL sodium acetate buffer (10 mM, pH 5.5), 50 μL cupric sulphate (5 μM); C: 25 μL catalase (5 μg/ml), 50 μL ascorbic acid (10 mM), 50 μl sodium fumarate (10 mM); D: 50 μl substrate (5 mM). Solution B was added to solution A, the resulting solution was mixed for 1 min. Solution C was added and the resulting solution was mixed for an additional minute. The reaction was started with the addition of the substrate (D), after which the reaction solution was incubated for 5 min at 37° C. in a shaking bath. The reaction was stopped by the addition of 100 μl of cold hexane, the resulting mixture was centrifuged at 3000×g for 10 min and the supernatant transferred to the pre-conditioned phenylboronic acid cartridges in order to extract the product formed and the remaining substrate. Extracted samples were directly injected onto the HPLC under either chiral or achiral conditions.

[2] = target: T2, dopamine beta-hydroxylase immobilized onto IAM (DBH-IAM) (Bos taurus, UniProt P15101); assay: DBH immobilized onto IAM stationary phase (DBH-IAM), batch assay; format: biochemical, bovine
T2 construct: purchased
T2 sequence (P15101 1-610): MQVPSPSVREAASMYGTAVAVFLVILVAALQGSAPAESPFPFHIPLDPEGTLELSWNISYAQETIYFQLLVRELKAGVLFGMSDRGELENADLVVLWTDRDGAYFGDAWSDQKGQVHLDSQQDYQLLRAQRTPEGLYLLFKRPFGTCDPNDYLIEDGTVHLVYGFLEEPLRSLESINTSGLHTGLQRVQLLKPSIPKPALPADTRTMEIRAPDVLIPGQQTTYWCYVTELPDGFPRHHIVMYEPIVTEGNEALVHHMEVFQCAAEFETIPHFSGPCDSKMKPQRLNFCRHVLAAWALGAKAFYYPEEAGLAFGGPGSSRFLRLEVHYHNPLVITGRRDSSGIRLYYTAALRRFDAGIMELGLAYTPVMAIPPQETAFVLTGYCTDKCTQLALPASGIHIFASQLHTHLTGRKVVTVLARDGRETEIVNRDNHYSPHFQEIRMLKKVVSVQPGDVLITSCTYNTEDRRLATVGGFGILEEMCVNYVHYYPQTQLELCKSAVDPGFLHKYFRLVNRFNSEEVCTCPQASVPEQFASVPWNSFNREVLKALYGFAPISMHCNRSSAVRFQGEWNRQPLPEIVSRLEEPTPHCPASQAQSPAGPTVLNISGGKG
Method: as §1
The packing material was washed three times with sodium acetate buffer (0.1M, pH 5.5). The washing was carried out by adding 1 ml of buffer to the packing material, the suspension was vortexed for 1 min, centrifuged at 3000×g for 10 min and the supernatant decanted. The enzyme solution (8-10 μg in 1 ml sodium acetate buffer) was added to the packing material, the mixture was vortexed for 15 min and then placed in a shaking bath for 2 h at ambient temperature. At the end of 2 h, the suspension was centrifuged, the supernatant decanted and the packing material washed three additional times with buffer. The amount of enzyme immobilized on the packing material was determined by measuring the amount of residual enzyme in the supernatant using the BioRad Protein Assay. The difference in the absorbance reading before immobilization and the total of absorbances after immobilization determined the amount of enzyme bound on the packing material.

[3] = target: T3, DBH-Glut-P IMER (immobilized dopamine beta-hydroxylase) (Bos taurus, UniProt P15101); assay: On-line DBH-Glut-P immobilized enzyme reactor (DBH-Glut-P IMER) HPLC system; format: biochemical, bovine
T3 construct: purchased
T3 sequence (P15101 1-610): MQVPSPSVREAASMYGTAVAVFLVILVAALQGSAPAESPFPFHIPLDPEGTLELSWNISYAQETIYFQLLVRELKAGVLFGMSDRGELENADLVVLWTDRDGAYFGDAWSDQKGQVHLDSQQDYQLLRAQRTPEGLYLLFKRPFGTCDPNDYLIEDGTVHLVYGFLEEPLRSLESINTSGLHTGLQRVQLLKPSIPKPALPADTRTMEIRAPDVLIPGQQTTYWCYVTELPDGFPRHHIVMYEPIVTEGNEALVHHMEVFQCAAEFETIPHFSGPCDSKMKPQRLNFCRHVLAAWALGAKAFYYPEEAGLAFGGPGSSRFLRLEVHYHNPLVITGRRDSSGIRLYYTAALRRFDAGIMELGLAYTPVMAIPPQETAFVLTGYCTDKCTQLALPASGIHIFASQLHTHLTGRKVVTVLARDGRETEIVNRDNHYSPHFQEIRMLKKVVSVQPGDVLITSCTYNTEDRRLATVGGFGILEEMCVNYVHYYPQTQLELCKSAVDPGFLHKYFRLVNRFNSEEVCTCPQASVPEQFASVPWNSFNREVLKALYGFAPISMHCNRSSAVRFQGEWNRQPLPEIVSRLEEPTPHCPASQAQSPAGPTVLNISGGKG
From the text: DBH immobilized on the IAM or Glut-P stationary phase was packed into a 1 cm×10 mm guard (Regis Technologies). The guard was placed in a holder and the resulting column connected to a chromatographic system. THE DBH-IAM-IMER and the DBH-Glut-P-IMER was washed with sodium acetate buffer [0.1M, pH 5.5] and sodium acetate buffer [0.1M, pH 6.0], respectively. The eluent from both IMERs was collected in order to determine if any of the DBH was being washed off the columns. The Biorad assay was utilized to measure the amount of non-immobilized enzyme. When the columns were not in use they were washed with sodium acetate buffer at the respective pHs and stored at 4° C.
Pumps 2 and 3 on system 2 and 3 were stopped. 100 μl of a substrate/cofactor mixture is loaded into the injector (i) and the valve is switched to the inject position at the same time the witching valve (SV) is switched such that substrate/product are eluted from the DBH-IMERs and concentrated onto the PBA column of system 2.The second pump was started and mobile phase A was pumped through the PBA column at a flow rate of 0.1 ml/min for 30 sec in order to elute, ascorbic acid and any other by-products produced from the reaction. The pump was then switched to mobile phase B with a flow rate of 0.1 ml/min for 2 min and simultaneously SV1 was switched such that unreacted substrate and product formed were concentrated on the analytical columns of System 3. When the specific contact time elapses the SV2 is switched back to the original position and the pump 3 is started.
The enzymatic activity on the DBH-Glut-P was determined by quantification of the amount of product formed with a given substrate. The temperature of the IMER unless otherwise stated was kept at 37° C. with a column heater. Stock solutions of tyramine were prepared in water. […] The kinetic parameters were determined using standard Michaelis-Menten approach. […] The rates of reaction (Vmax) were calculated using […]mol/mg/min. Results are expressed as mean±standard error of the mean (SEM). […]

[4] = substrate: NCCc1ccc(O)c(O)c1; assay: purified protein, by the assay type; conditions: other: DBH-IAM; pH 5.5; 37.0 °C
[5] = substrate: NCCc1ccc(O)cc1; assay: DBH immobilized onto IAM stationary phase (DBH-IAM), batch assay; format: biochemical, bovine; conditions: other: DBH-IAM; pH 5.5; 37.0 °C
[6] = read-out: % Control Activity DBH
[7] = read-out: % Control Activity DBH-IAM

Question: Which IC50 [1] does the source give for `CCCCc1ccc(C(=O)O)nc1` [Fusaric acid, fusaric acid] here?
Answer: 7.5 nM

Question: What about the “inhibition of DBH mediated formation of norepinephrine from dopamine” value ([1]; non-immobilized enzyme, concentrations as low as 10^−6M) of the same molecule?
Answer: approximately 50%

Question: What about the remaining activity at 0.0016 µM [1, 6] of the same molecule?
Answer: 99%

Question: And the remaining activity at 0.0032 µM [1, 6]?
Answer: 84%

Question: And the remaining activity at 0.0063 µM [1, 6]?
Answer: 40%

Question: And the remaining activity at 0.0125 µM [1, 6]?
Answer: 21%

Question: And the remaining activity at 0.025 µM [1, 6]?
Answer: 19%

Question: And the remaining activity at 0.05 µM [1, 6]?
Answer: 17%

Question: And the remaining activity at 0.1 µM [1, 6]?
Answer: 0%

Question: And the remaining activity at 0.2 µM [1, 6]?
Answer: 0%

Question: What about the “inhibition of DBH mediated formation of norepinephrine from dopamine” value ([2]; immobilized enzyme (DBH-IAM), concentrations as low as 10^−6M) of the same molecule?
Answer: approximately 50%

Question: And the remaining activity at 0.0016 µM [2, 7]?
Answer: 91%

Question: What about the remaining activity at 0.0032 µM [2, 7] of the same molecule?
Answer: 73%

Question: And the remaining activity at 0.0063 µM [2, 7]?
Answer: 56%

Question: And the remaining activity at 0.0125 µM [2, 7]?
Answer: 51%

Question: And the remaining activity at 0.025 µM [2, 7]?
Answer: 46%

Question: What about the remaining activity at 0.05 µM [2, 7] of the same molecule?
Answer: 20%

Question: What about the remaining activity at 0.1 µM [2, 7] of the same molecule?
Answer: 0%

Question: What about the remaining activity at 0.2 µM [2, 7] of the same molecule?
Answer: 0%

Question: What about the IC50 [3] of the same molecule?
Answer: 5.6 nM

B1: dopamine beta-hydroxylase immobilized onto IAM (DBH-IAM) (Bos taurus) (protein)
chain: MQVPSPSVREAASMYGTAVAVFLVILVAALQGSAPAESPFPFHIPLDPEGTLELSWNISYAQETIYFQLLVRELKAGVLFGMSDRGELENADLVVLWTDRDGAYFGDAWSDQKGQVHLDSQQDYQLLRAQRTPEGLYLLFKRPFGTCDPNDYLIEDGTVHLVYGFLEEPLRSLESINTSGLHTGLQRVQLLKPSIPKPALPADTRTMEIRAPDVLIPGQQTTYWCYVTELPDGFPRHHIVMYEPIVTEGNEALVHHMEVFQCAAEFETIPHFSGPCDSKMKPQRLNFCRHVLAAWALGAKAFYYPEEAGLAFGGPGSSRFLRLEVHYHNPLVITGRRDSSGIRLYYTAALRRFDAGIMELGLAYTPVMAIPPQETAFVLTGYCTDKCTQLALPASGIHIFASQLHTHLTGRKVVTVLARDGRETEIVNRDNHYSPHFQEIRMLKKVVSVQPGDVLITSCTYNTEDRRLATVGGFGILEEMCVNYVHYYPQTQLELCKSAVDPGFLHKYFRLVNRFNSEEVCTCPQASVPEQFASVPWNSFNREVLKALYGFAPISMHCNRSSAVRFQGEWNRQPLPEIVSRLEEPTPHCPASQAQSPAGPTVLNISGGKG
notes: purchased
Question: For B1, which Km [4] is on record?
Answer: 2530 µM

Question: What about the Vmax [4] of the same molecule?
Answer: 0.160 µmol/mg/min

Question: And the Km [5]?
Answer: 1640 µM

Question: What about the Vmax [5] of the same molecule?
Answer: 0.101 µmol/mg/min
